Earlier results, collected in publication PMC12371493 (ACS Bio & Med Chem Au, 2025).

Tested on: MC38-hPD-L1 tumor
Details: dosed SubQ; ref not given

In the case of CO[C@H]1[C@H]2OP(=O)(O)OC[C@@]34C[C@@H]3[C@@H](n3cnc5c(N)ncnc53)[C@H](O)[C@@H]4O[P@](=O)(S)OC[C@H]1O[C@H]2n1cnc2c(=O)[nH]c(N)nc21 [ALG-031048], the “reduction of MC38-hPD-L1 tumor” value is given as “could reduce MC38-hPD-L1tumor, albeit modestly”.
